Structures are written as SMILES. Read-outs that look alike come from different tables or passages of the source.

Consider three compounds from patent publication US9428791B2, “Probes of RNA structure and methods for using the same” (The Board of Trustees of the Leland Stanford Junior …, priority 2012, dated 2016).

The test system of data set [1] is ATP. The data set is described as follows: ATP gel shift acylation. The text has this:
ATP gel shift. […] Chem. Soc. 127, 4223-4231, (2005).
(A gel shift assay detects complexes by their altered migration in electrophoresis.)

Data set [2] concerns 5S rRNA. The data set is described as follows: Acylation of RNA in E. coli cells. The data set is classed as cell-based, Escherichia coli. As to the method: Acylation of RNA in E. coli cells. […] E. coli cells are grown to an OD600 of 0.25 at 37° C. in […]. Cells are spun down at 4000×g and decanted. […] Cells are resuspended in a final volume of a fresh solution of 800 μl 0.5 mg/ml lysozyme, TE pH 8.0. 80 μl of 10% SDS is added to the mixture and the slurry is placed at 64° C. for 1-2 min. After incubation add 88 μl 1 M NaOAc, pH5.2 is added. The samples are added to an equal volume (1 ml) of water-saturated phenol (pH <7.0) and incubated at 64° C. for 6 min. The resultant slurry is spun at max speed (14,000 rpm) for 10 min at 4° C. […] Reverse transcription primer used for E. coil 5S rRNA: 5′-[…] (SEQ ID NO: 10).
(§1) Extensions are performed for ten minutes.

The nature of data set [3]: Hydrolysis of NAI and FAI in aqueous buffer (absorbance decay). In kind it is physicochemical. The settings on record: 100 mM HEPES, 100 mM NaCl, 10 mM MgSO4, pH 8.0; fit f=y0+a*exp(−b*x); in 1/min. As to the method:
Hydrolysis of NAI and FAI. Hydrolysis of NAI and FAI is monitored by adding 1.5 μL of a 100 mM solution of either NAI or FAI in spectroscopic grade DMF to 598.5 μL of buffer (100 mM HEPES, 100 mM NaCl, 10 mM MgSO4, pH 8.0) and monitoring the decrease in absorbance at 265 nm (NAI) or 275 nm (FAI). Three parameter pseudo-first order exponential decay kinetics are fit using OriginPro 8.0 software using the equation: f=y0+a*exp(−b*x)

For data set [4], the system named is 5S rRNA. The data set is classed as cell-based. Particulars: cultured human cancer cells. As to the method: (§2) Cells are then spun down and decanted. […] Extensions are performed for ten minutes.
Data set [5] relates to 5S rRNA. Kind of data set: Acylation of RNA in yeast cells. In kind it is cell-based, Saccharomyces cerevisiae. As to the method:
Acylation of RNA in yeast cells. […] Yeast cells are grown to an OD600 of 1.0 at 30° C. in YPD medium. Cells are spun down at 4000×g and decanted. […] Cells are then spun down, decanted, and flash frozen in liquid nitrogen. Frozen pellets are resuspended in 500 uL of 50 mM NaOAc pH5.0, 10 mM EDTA pH 8.0 and 100 uL of 10% SDS. […] Cells are incubated at 65° C. for 1 minute. The freeze thaw cycle is repeated three times.
as §1

Data set [6] has as its system 5S rRNA. The data set is classed as cell-based, Drosophila melanogaster. The settings on record: Drosophila S2 cells. As to the method: as §2
A further data set concerns human 5S rRNA. Kind of data set: Acylation of 5S rRNA in vitro (SHAPE). As to the method:
Acylation of RNA, in vitro. In a typical in vitro modification protocol, 6 μg total RNA is heated in metal-free water for two minutes at 95° C. The RNA is then flash-cooled on ice. The RNA 3× SHAPE buffer (333 mM HEPES, pH 8.0, 20 mM MgCl2, 333 mM NaCl) is added and the RNA allowed to equilibrate at 37° C. for ten minutes. To this mixture, 1 μL of 10× electrophile stock in DMSO (+) or DMSO (−) is added. The reaction is permitted to continue until the desired time. Reactions are quenched with 60 μL of DMS stop solution (0.5 M β-mercaptoethanol, 0.75 M Na.acetate, pH 5.5). Reactions are extracted once with acid phenol:chloroform (pH 4.5±0.2) and twice with chloroform. RNA is precipitated with 40 μL of 3M sodium acetate buffer (pH 5.2) and 1 μL of glycogen (20 ug/uL).
as §1

The subject of data set [7] is 5S rRNA. The data set is classed as cell-based, mouse. As to the method: as §2
Data set [8] relates to U1 snRNA, U2 snRNA, SNORD3A. Kind of data set: Acylation of nuclear RNAs in HeLa S3 cells. In kind it is cell-based, Homo sapiens. The settings on record: HeLa S3, 200 mM final, thirty minutes. As to the method:
Cells are then spun down and decanted. […] NO: 12). […] NO:7) (SEQ ID NO:13). […] NO:14). […] Extensions are performed for ten minutes.

The nature of a further data set: Solubility. The data set is classed as physicochemical.
In another data set the test system is HOTAIR. Kind of data set: Secondary structure probing of in vitro transcribed HOTAIR RNA. Particulars: 5′ end of HOTAIR. As to the method:
ABI-1 as a probe of RNA secondary structure. To evaluate the compound's ability to modify RNA at conformationally flexible positions ABI-1 was tested in comparison to NMIA. […] After incubation, the RNA was extracted and precipitated with ethanol.
ABI-1 Reversible Modification and Cell-Permeability. […] FIG. 15A.

The subject of data set [9] is ATP. The settings on record: see Weeks et al., J. Am. Chem. Soc. 127, 4223-4231, 2005; cited from earlier work.
For data set [10], the system named is ATP.
Procedure: Briefly, 10,000 cpm/uL of radiolabeled ATP is incubated with increasing amounts of NAI or FAI (10% final volume) in 100 mM HEPES buffer, pH 8.0, containing 6 mM MgCl2, 100 mM NaCl. Reactions are stopped by addition of an equal volume of Gel Loading Buffer 11 (Ambion, Inc.) and placed on ice. […] Single adduct reaction rates and percentages are calculated by integrating bands (Image Quant, IM Support) and fit to a single exponential.

Turning to `Cc1ncccc1C(=O)n1ccnc1` [NAI, 2-methylnicotinic acid imidizolide], the “Retained reactivity with ATP in aqueous buffer” value in the data set with ATP [1] is listed as “retain reactivity with ATP at 120 minutes”. Moreover, the “5S rRNA modification in cells” value in the data set on 5S rRNA [2], in the data set with 5S rRNA [4], in the data set with 5S rRNA [5] and in the data set with 5S rRNA [6] was “modifies 5S rRNA” in each case. For the same compound, the “b (pseudo-first order exponential decay constant of hydrolysis)” value in data set [3] is on record as “.020476”. Further, in the data set on human 5S rRNA, the “Sites of modification mapped to predicted secondary structure” value is reported as “map to residues that are predicted to be flexible”. Moreover, the “Time at which modification signal begins to plateau” value with 5S rRNA [7] (100 mM NAI, murine ESCs) is at most 15 min. Besides, in the data set on 5S rRNA [7] (100 mM NAI, murine ESCs), the “Time to 5S rRNA modification with suitable signal-to-noise ratio” value is listed as “in as little as one minute”. Also, in the data set on 5S rRNA [7] (live mouse ESC, aqueous buffer), the “5S rRNA modification in cells (reverse transcription blocks)” value is “caused blocks in subsequent reverse transcription”. The “Extent of modification in cells, comparison of probes” value in the data set on 5S rRNA [7] (same concentration) is given as “greater extent of modification than FAI”. Besides, the “Cell attachment, morphology and trypan blue staining” value in the data set on V6.5 mESCs was “remained attached to tissue culture vessel, appeared morphologically normal and unstained by trypan blue”. In addition, in data set [8], the “Modification of nuclear, lower abundant RNAs” value was “modifies nuclear, lower abundant RNAs”.
For `Cn1c(=O)oc(=O)c2ccccc21` [NMIA, N-methylisotoic anhydride], the maximum solubility in the data set “Solubility” stood at 13 mM. The “Mapping of RNA secondary structure” value in the data set on HOTAIR was “successfully mapped the predicted secondary structure of the 5′ end of HOTAIR”. Also, in the data set with ATP [9], the “Retained reactivity in aqueous buffer” value is recorded as “mostly quenched after thirty minutes”. In the data set with human 5S rRNA, the “Sites of modification mapped to predicted secondary structure” value is “map to residues that are predicted to be flexible”.
Turning to `N#CC(=O)OCc1ccccc1`, the “Result (qualitative: reactivity toward ATP, hydrolysis, solubility)” value in the data set on ATP [10] was “Too Reactive, High Hydrolysis”.
